Measurements published in patent US9290440B2, “Bicyclic compound” (TOA EIYO LTD., priority 2012, dated 2016).
Read-outs that look alike come from different tables or passages of the source.

What was measured:
[1] = molecular target: T1, human sGC α subunit and β subunit (Homo sapiens, UniProt Q02153); test: Maximum effect of sGC activating function (Ca2+ fluorescence in CHO-K1 cells expressing human sGC and mouse CNGA2); assay type: cell-based; conditions: increase ratio of sGC activity vs control solution at 10 μmol/L test compound
T1 construct: expressed in transfected cells
T1 sequence (Q02153 1-619): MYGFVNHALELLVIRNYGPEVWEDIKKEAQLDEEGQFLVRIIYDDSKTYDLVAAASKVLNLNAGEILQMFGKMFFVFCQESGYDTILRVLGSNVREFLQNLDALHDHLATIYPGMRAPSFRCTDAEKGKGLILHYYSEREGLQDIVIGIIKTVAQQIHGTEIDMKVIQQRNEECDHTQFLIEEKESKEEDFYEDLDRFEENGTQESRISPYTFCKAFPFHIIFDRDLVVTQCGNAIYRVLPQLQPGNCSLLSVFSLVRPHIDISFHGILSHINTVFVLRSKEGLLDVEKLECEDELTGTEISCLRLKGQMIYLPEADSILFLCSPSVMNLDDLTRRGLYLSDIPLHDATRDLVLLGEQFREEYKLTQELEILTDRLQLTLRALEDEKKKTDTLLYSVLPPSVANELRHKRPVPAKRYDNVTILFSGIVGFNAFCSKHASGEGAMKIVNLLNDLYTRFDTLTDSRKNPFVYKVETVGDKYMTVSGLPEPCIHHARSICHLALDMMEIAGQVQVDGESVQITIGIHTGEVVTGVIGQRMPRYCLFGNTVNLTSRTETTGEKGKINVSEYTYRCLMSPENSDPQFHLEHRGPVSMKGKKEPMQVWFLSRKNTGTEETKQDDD
T1 sequence (Q02108 1-690 partner): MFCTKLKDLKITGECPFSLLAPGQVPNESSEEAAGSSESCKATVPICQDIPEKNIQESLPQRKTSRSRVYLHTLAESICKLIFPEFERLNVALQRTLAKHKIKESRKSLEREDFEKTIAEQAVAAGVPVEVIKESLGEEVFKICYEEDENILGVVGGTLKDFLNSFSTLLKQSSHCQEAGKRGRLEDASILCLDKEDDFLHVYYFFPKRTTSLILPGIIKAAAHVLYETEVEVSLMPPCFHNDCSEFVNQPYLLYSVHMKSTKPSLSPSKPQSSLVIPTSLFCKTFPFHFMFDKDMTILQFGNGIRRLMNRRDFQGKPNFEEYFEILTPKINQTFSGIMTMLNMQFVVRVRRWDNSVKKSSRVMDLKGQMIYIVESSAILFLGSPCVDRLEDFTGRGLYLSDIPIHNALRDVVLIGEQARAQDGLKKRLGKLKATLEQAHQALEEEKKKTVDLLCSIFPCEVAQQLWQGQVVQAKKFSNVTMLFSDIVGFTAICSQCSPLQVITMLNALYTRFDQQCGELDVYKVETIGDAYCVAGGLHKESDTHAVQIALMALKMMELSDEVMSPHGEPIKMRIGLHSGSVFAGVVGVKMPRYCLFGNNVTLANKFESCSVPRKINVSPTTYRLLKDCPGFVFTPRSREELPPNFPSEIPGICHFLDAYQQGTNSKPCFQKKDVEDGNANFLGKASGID
Protocol: For the assay, Chinese hamster ovary cells (CHO-K1 cells) in which human sGC α subunit and β subunit and mouse cyclic nucleotide gated channel (CNGA2) are stably expressed were used.
CHO-K1 cells in which human sGC and mouse CNGA2 are stably expressed were cultured at 37° C. in F-12 medium containing 10% (v/v) fetal bovine serum (FBS), penicillin (100 U/mL), streptomycin (100 μg/mL), G418 (250 μg/mL), and zeocin (250 μg/mL). The cells were suspended in the culture medium and seeded onto a 96-well plate, and then cultured at 37° C. for 24 hours. After washing with assay buffer 1 (140 mmol/L sodium chloride, 5 mmol/L potassium chloride, 0.5 mmol/L magnesium chloride, 0.01 mmol/L calcium chloride, 10 mmol/L glucose, 0.4 mmol/L magnesium sulfate, 10 mmol/L 4-(2-hydroxyethyl)piperazin-1-ylethane sulfonic acid, and 125 μmol/L sulfinpyrazone, pH 7.4), an indicator solution in which FURA2-AM as a fluorescent Ca^2+ indicator is dissolved at concentration of 5 μmol/L in assay buffer 1 was added followed by culture for 60 minutes at 37° C. The indicator solution was removed. After washing with assay buffer 1, the test compound solution was added and incubated for 10 minutes at room temperature. The plate was placed in a fluorometer (Flex Station II, Molecular Devices, LLC), and then the intracellular calcium concentration was measured as fluorescence intensity ratio which is obtained from each excitation wavelength (excitation wavelength of 340 nm and 380 nm and detection wavelength of 510 nm).
The test compound solution was prepared by dissolving each of the test compounds in DMSO to a concentration of 10 mmol/L, and then adding the assay buffer 2 (140 mmol/L sodium chloride, 5 mmol/L potassium chloride, 0.5 mmol/L magnesium chloride, 1 mmol/L calcium chloride, 10 mmol/L glucose, 0.4 mmol/L magnesium sulfate, 10 mmol/L 4-(2-hydroxyethyl)piperazin-1-ylethane sulfonic acid, 125 μmol/L sulfinpyrazone, 100 μmol/L isobutylmethylxanthine, 10 μmol/L 1H-[1,2,4]-oxadiazole[4,3-a]quinoxalin-1-one (hereinbelow, ODQ), pH 7.4) for dilution to have test concentration of 10 μmol/L. For the evaluation of a case in which ODQ is not contained, the same evaluation was performed except that ODQ is excluded from assay buffer 2. As a control solution, a DMSO solution was used instead of the test compound solution.
The activity of the test compound corresponds to the increase ratio (%) of the sGC activity at the time of adding the test compound solution with respect to the sGC activity at the time of adding the control solution, and it was calculated by dividing the fluorescence intensity ratio at the time of adding the test compound by the fluorescence intensity ratio of the control solution and subtracting the sGC activity (100%) at the time of adding the control solution.
In this assay, intracellular cGMP concentration increases as sGC is activated, and according to opening of CNGA2 following the increase of cGMP, intracellular Ca^2+ concentration increases. Thus, SGC activation can be measured by following the change in intracellular Ca^2+ concentration. […] Thus, in the absence of ODQ, the maximum sGC activating function including the heme-dependent activation can be evaluated while the heme-independent sGC activating function can be evaluated in the presence of ODQ.

[2] = test system: abdominal aorta ring specimen; test: Evaluation of blood vessel relaxing function (phenylephrine-contracted abdominal aorta ring); conditions: relaxation of rat abdominal aorta contracted with 1 μmol/L phenylephrine; without vs with 10 μmol/L ODQ
Protocol: The representative compounds of the present invention were evaluated by blood vessel relaxing function according to the following Test Example. In the assay, bleeding from the upper part of a heart of a rat (male, SD) was performed under anesthesia with pentobarbital (30 mg/kg) and then abdominal aorta was extracted. The connecting tissue adhered around blood vessel was removed from the abdominal aorta in an ice-cooled Krebs-Henseleit solution (KH solution) (118 mmol/L sodium chloride, 4.7 mmol/L potassium chloride, 1.2 mmol/L magnesium sulfate, 1.2 mmol/L potassium dihydrogen phosphate, 25 mmol/L sodium hydrogen carbonate, 2.5 mmol/L calcium chloride, and 10 mmol/L glucose, pH 7.4). After that, a ring specimen with length of 2 mm was prepared and fixed in 5 mL organ bath filled with a KH solution. The KH solution was kept at 37° C. and aerated with a mixture gas of 95% O2 and 5% CO2. The specimen was stabilized for 1 hour with static tension of 1 g. The KH solution was exchanged twice during that time. The tension on the specimen was recorded on a multi-channel recorder via pickup and amplifier. After the stabilization of the specimen, contraction was caused by using 1 μmol/L phenylephrine (Phe), and cumulative administration of each compound (0.001, 0.01, 0.03, 0.1, 0.3, 1, 3, 10, 30, 100, 1000, 10000 nmol/L) was performed. For the evaluation of a case in which 1H-1,2,4-oxadiazole-(4,3a)-quinoxalin-1-one (ODQ) is contained, 10 μmol/L ODQ was added 10 minutes before the Phe addition, and the same evaluation as above was performed.
EC50 value was calculated using four-parameter logistics model using Assay Explorer (Accelrys). The test compound solution was dissolved in DMSO such that the concentration of each test compound is 1000 times the final concentration.

O=C(O)CCCCN(CCc1ccccc1OCc1ccc2c(c1)CCC2)C1CCCc2cc(C(=O)O)ccc21 (stereo not drawn) [Example 46, 5-{N-(4-Carboxybutyl)-N-[2-[2-(indane-5-ylmethoxy)phenyl]ethyl]amino}-5,6,7,8-tetrahydronaphthalene-2-carboxylic acid]
Emax at 10 µM ([1]; ODQ not contained, read-out: Emax (%) ODQ− (Heme-dependent)): 81.3% | Emax at 10 µM ([1]; with 10 μmol/L ODQ, read-out: Emax (%) ODQ+ (Heme-independent)): 123% | EC50 Ratio (ODQ−/ODQ+) [2]: 5.2
